Results as given in US4382889A, “Epoxysuccinic acid derivatives” (Taisho Pharmaceutical Co., Ltd., priority 1979, dated 1983).

Molecular target: T1, papain (Carica papaya, UniProt P00784)
T1 construct: purchased Sigma Chem. Co
T1 sequence (P00784 134-345): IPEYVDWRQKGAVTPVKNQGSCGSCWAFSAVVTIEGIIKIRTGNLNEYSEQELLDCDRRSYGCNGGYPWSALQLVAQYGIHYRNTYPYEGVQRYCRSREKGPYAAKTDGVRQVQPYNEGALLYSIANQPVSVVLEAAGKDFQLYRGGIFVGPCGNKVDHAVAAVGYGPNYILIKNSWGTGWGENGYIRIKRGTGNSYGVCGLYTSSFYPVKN
Assay: Papain inhibitory activity (method of K. Hanada et al)
Assay type: biochemical
Settings: papain 80 ug/ml, Sigma, 2 x cry.
Procedure: Papain inhibitory activity of the compounds of the present invention was assayed by the method of K. Hanada et al, [Argric. Biol. Chem., 42, No. 3, 523(1978)] using papain (80 ug/ml, Sigma Chem. Co., 2 x cry.).

Compound | Papain ID50 (amount of inhibitor for 50% inhibition)
COC(=O)[C@@H](CC(C)C)NC(=O)[C@H](CC(C)C)NC(=O)[C@@H]1O[C@H]1C(=O)OCc1ccccc1 [Compound 24, N-(D-3-trans-benzyloxycarbonyloxirane-2-carbonyl)-L-leucyl-D-leucine methyl ester] | 0.219 µg
COC(=O)CC[C@H](NC(=O)[C@H](CC(C)C)NC(=O)C1OC1C(=O)OCc1ccccc1)C(=O)OC (mixture of isomers) [Compound 20, N-(DL-3-trans-benzyloxycarbonyloxirane-2-carbonyl)-L-leucyl-L-gluamic acid dimethyl ester] | 0.255 µg
CC(C)C[C@H](NC(=O)C1OC1C(=O)OCc1ccccc1)C(=O)N[C@@H](CC(C)C)C(=O)OCc1ccccc1 (mixture of isomers) [Compound 17, N-(DL-3-trans-benzyloxycarbonyloxirane-2-carbonyl)-L-leucyl-L-leucine benzyl ester] | 0.255 µg
CC(C)C[C@H](NC(=O)C1OC1C(=O)OC1CCCC1)C(=O)NC1CCCC1 (mixture of isomers) [Compound 14, N-[N'-(DL-3-trans-cycloentyloxycarbonyl)-L-leucyl]cyclopentylamine] | 0.187 µg
CC(C)C[C@H](NC(=O)C1OC1C(=O)OCc1ccccc1)C(=O)N(C)C (mixture of isomers) [Compound 11, N-[N'-(DL-3-trans-benzyloxycarbonyloxirane-2-carbonyl)-L-leucyl]dimethylamine] | 0.184 µg
CCOC(=O)C1OC1C(=O)N[C@@H](CC(C)C)C(=O)NC1CCCCC1 (mixture of isomers) [Compound 1, N-[N'-(DL-3-trans-ethoxycarbonyloxirane-2-carbonyl)-L-leucyl]cyclohexylamine] | 0.439 µg
COC(=O)[C@@H](NC(=O)[C@H](CC(C)C)NC(=O)C1OC1C(=O)OCc1ccccc1)[C@@H](C)O (some centres unmarked) [Compound 29] | 0.35 µg
CCOC(=O)C1OC1C(=O)N[C@@H](CC(C)C)C(=O)NC1CC1 (some centres unmarked) [Compound 5] | 0.284 µg
CCOC(=O)CNC(=O)[C@@H](NC(=O)C1OC1C(=O)OCc1ccccc1)C(C)CC (some centres unmarked) [Compound 40] | 0.481 µg
CCC(C)[C@H](NC(=O)C1OC1C(=O)OCc1ccccc1)C(=O)N[C@@H](Cc1c[nH]c2ccccc12)C(=O)OC (some centres unmarked) [Compound 38] | 0.305 µg
CCC(C)[C@H](NC(=O)C1OC1C(=O)OCc1ccccc1)C(=O)N[C@H](C(=O)OC)C(C)C (some centres unmarked) [Compound 41] | 0.272 µg
COC(=O)C1OC1C(=O)N[C@@H](CC(C)C)C(=O)N[C@@H](CCSC)C(=O)OC (some centres unmarked) [Compound 28] | 0.156 µg
COC(=O)[C@H](Cc1ccccc1)NC(=O)[C@H](Cc1ccccc1)NC(=O)C1OC1C(=O)OCc1ccccc1 (some centres unmarked) [Compound 37] | 2.50 µg
CCOC(=O)C1OC1C(=O)N[C@@H](Cc1ccccc1)C(=O)N[C@@H](Cc1ccccc1)C(=O)OC (mixture of isomers) [Compound 18, N-(DL-3-trans-ethoxycarbonyloxirane-2-carbonyl-L-phenylalanyl-L-phenylalaninemethyl ester] | 29.07 µg
CCOC(=O)C1OC1C(=O)N[C@@H](CC(C)C)C(=O)NCCC(C)C (some centres unmarked) [Compound 7] | 0.410 µg
COC(=O)CC[C@H](NC(=O)[C@H](CC(C)C)NC(=O)C1OC1C(=O)O)C(=O)OC (mixture of isomers) [Compound 47, N-(DL-3-transcarboxyoxirane-2-carbonyl)-L-leucyl-L-glutamic acid dimethyl ester] | 0.260 µg
CCOC(=O)C1OC1C(=O)N[C@@H](CC(C)C)C(=O)N1CCCCC1 (mixture of isomers) [Compound 4, N-[N'-(DL-3-trans-ethoxycarbonyloxirane-2-carbonyl)-L-leucyl]piperidine] | 0.417 µg
CCOC(=O)C1OC1C(=O)N[C@@H](CC(C)C)C(=O)NC1CCCC1 (some centres unmarked) [Compound 6] | 0.410 µg
CCCCCCCCCCNC(=O)[C@H](CC(C)C)NC(=O)C1OC1C(=O)OCC (mixture of isomers) [Compound 2, N-[N'-(DL-3-trans-ethoxycarbonyloxirane-2-carbonyl)-L-leucyl]-n-decylamine] | 0.227 µg
CC(C)C[C@H](NC(=O)C1OC1C(=O)OC1CCCCC1)C(=O)NC1CCCCC1 (mixture of isomers) [Compound 13, N-[N'-(DL-3-trans-cyclohexyloxycarbonyloxirane-2-carbonyl)-L-leucyl]cyclohexylamine] | 0.255 µg
CC(C)C[C@H](NC(=O)C1OC1C(=O)O)C(=O)N[C@@H](CC(C)C)C(=O)OCc1ccccc1 (mixture of isomers) [Compound 48, N-(DL-3-trans-carboxyoxirane-2-carbonyl)-L-leucyl-L-leucine benzyl ester] | 0.215 µg
CC(C)C[C@H](NC(=O)C1OC1C(=O)O)C(=O)N[C@@H](CCCN)C(=O)O (mixture of isomers) [Compound 44, N-(DL-3-trans-carboxyoxirane-2-carbonyl)-L-leucyl-L-ornithine] | 0.250 µg
COC(=O)[C@@H](CC(C)C)NC(=O)[C@H](CC(C)C)NC(=O)C1OC1C(=O)OCc1ccccc1 (mixture of isomers) [Compound 23, N-(DL-3-trans-benzyloxycarbonyloxirane-2-carbonyl)-L-leucyl-D-leucine methyl ester] | 0.221 µg
CCOC(=O)C1OC1C(=O)N[C@@H](CC(C)C)C(=O)N1CCCC1 (mixture of isomers) [Compound 3, N-[N'-(DL-3-trans-ethoxycarbonyloxirane-2-carbonyl)-L-leucyl]pyrrolidine] | 1.10 µg
COC(=O)[C@H](CCCN=C(N)N[N+](=O)[O-])NC(=O)[C@H](CC(C)C)NC(=O)C1OC1C(=O)OCc1ccccc1 (mixture of isomers) [Compound 26, N-(DL-3-trans-benzyloxycarbonyloxirane-2-carbonyl)-L-leucyl-N^G -nitro-L-arginine methyl ester] | 0.139 µg
CCOC(=O)[C@H](Cc1ccccc1)NC(=O)[C@H](CC(C)C)NC(=O)C1OC1C(=O)OCc1ccccc1 (some centres unmarked) [Compound 31] | 0.375 µg
COC(=O)[C@@H]1CCCN1C(=O)[C@H](CC(C)C)NC(=O)C1OC1C(=O)O (mixture of isomers) [Compound 46, N-(DL-3-trans-carboxyoxirane-2-carbonyl)-L-leucyl-L-proline methyl ester] | 0.105 µg
CCC(C)[C@H](NC(=O)C1OC1C(=O)OCc1ccccc1)C(=O)N[C@@H](Cc1ccc(O)cc1)C(=O)OC (some centres unmarked) [Compound 39] | 0.408 µg
CC(C)C[C@H](NC(=O)C1OC1C(=O)OCc1ccccc1)C(=O)N(C)c1ccccc1 (mixture of isomers) [Compound 10, N-[N'-(DL-3-trans-benzyloxycarbonyloxirane-2-carbonyl)-L-leucyl]-N-methylaniline] | 0.510 µg
